Entries after “also recorded” stand apart in the source; their conditions may differ.
Key:
Assay type in all cases: physicochemical
[1] = Thermodynamic stability of the crystalline phases (DSC, X-ray at various temperatures); conditions: at and around room temperature / upon heating
Procedure: X-ray diffractograms registered at various temperatures from room temperature to 100° C., at intervals of 10° C., have confirmed the solid-solid transition from form A to form C. A first crystalline solid phase, designated as form A, exists from room temperature to […] Two crystalline forms are thus observed : form A from room temperature to about 50° C., and form C appearing above 50° C. and melting between 60 and 70° C.
All DSC measurements are performed with a Mettler DSC822e (module DSC822e/700/109/414935/0025). If not indicated differently, 40 μL Al-crucibles with sealed lid and hole are used. All measurements are carried out in a nitrogen gas flow of 50 mL/min and chosen heating rate was 10° C./min., with a heating from 25° C. to at least 150° C.
In comparison, the crystallized form C of dronedarone base presents a melting point at about 69° C. On heating with a rate of 10° C./min, form A transforms to form C at about 54° C.; on further heating, form C melts at about 65° C. (onset temperature of the second endothermic event). After formation of form C, if the heating is stopped below form C melting point and the medium is then cooled back to room temperature, form C typically transforms back to form A between 50 and 45° C.

[2] = Stability study in climatic chamber: appearance; conditions: after 15 and 30 days at 50° C./80% RH
Procedure: (§1) The stabilities of two crystalline forms of dronedarone base, namely form B according to the instant invention and form A described above, are studied in a climatic chamber (reference : Firlabo SP_BVEHF) at 50° C., with or without 80% relative humidity (RH). The duration time of the stability study is set up at 1 month. Samples are monitored in terms of appearance by microscope observation, chemical degradation by HPLC, crystalline form and phase change by XRPD (X-Ray Powder Diffraction, reference : Bruker D5000) and thermal behavior by DSC and TGA (references : TA Instrument Q100/Q1000 for DSC analyses and 050/Q500 for TGA analyses). HPLC is performed with a Waters 2487 apparatus, using as mobile phase a gradient of acetonitrile and pH 4.0 phosphate buffer (30/70 to 70/30, V/V, gradient).

[3] = Stability study in climatic chamber: crystalline form and phase change by XRPD
Procedure: as §1

[4] = Stability study in climatic chamber: thermal behavior by DSC and TGA
Procedure: as §1

[5] = Dynamic Vapor Sorption (DVS) moisture sorption/desorption isotherms; conditions: 25° C., relative humidity 0 to 95% and back, two cycles
Procedure: Moisture sorption/desorption isotherms are recorded on a DVS-1 from Surface Measurement Systems. Two cycles are run at 25° C., in which the relative humidity is stepped from 0 to 95% and back to 0%. The complete measurement time for both cycles is about 35 h. The data is evaluated using the software DVSWin V. 2.15.
The DVS isotherms of the crystallized form B of dronedarone base are represented on FIG. 5, wherein the change in dry mass (expressed in percentages) is plotted against the target relative humidity (RH, expressed in percentages). On FIG. 5, <<Sorp>> and <<Desorp>> respectively designate the humidity sorption and desorption of each cycle.

[6] = Stability study in climatic chamber: chemical degradation by HPLC; conditions: 50° C. with or without 80% RH, up to 30 days
Procedure: as §1
The results in terms of chemical degradation are presented in table 8, which summarizes the content in degradation product measured in the samples. The results in table 8 represent percentages in impurities (impurities appearing after the storage for 15 to 30 days, i.e. total impurities after storage minus impurities already present at t=0).
The percentages correspond to the area under the peaks detected in chromatography.

| SMILES | thermodynamic stability of the solid form [1] | appearance after storage (visual) [2] | crystalline form change by XRPD ([3]; all tested conditions, up to 30 days) | stability in terms of crystalline phase ([3]; storage at 50° C. with or without 80% RH) | change in the DSC spectrum after storage ([4]; whatever the storage conditions) | hygroscopicity [5] | chemical stability compared under the same storage conditions [6] | crystalline form change by XRPD ([3]; after 15 days at 50° C./80% RH) | change in the DSC spectrum after storage ([4]; stored at 50° C./80% RH) |
| --- | --- | --- | --- | --- | --- | --- | --- | --- | --- |
| CCCCc1oc2ccc(NS(C)(=O)=O)cc2c1C(=O)c1ccc(OCCCN(CCCC)CCCC)cc1 [Form C, 2-n-butyl-3-[4-(3-di-n-butylaminopropoxy)benzoyl]-5-methylsulfonamido-benzofuran] | unstable at room temperature | – | – | – | – | – | – | – | – |
| CCCCc1oc2ccc(NS(C)(=O)=O)cc2c1C(=O)c1ccc(OCCCN(CCCC)CCCC)cc1 [Form B, 2-n-butyl-3-[4-(3-di-n-butylaminopropoxy)benzoyl]-5-methylsulfonamido-benzofuran] | thermodynamically most stable one | no change is detected | no change is detected | more stable than form A | No change | low | more stable than form A | – | – |
| CCCCc1oc2ccc(NS(C)(=O)=O)cc2c1C(=O)c1ccc(OCCCN(CCCC)CCCC)cc1 [Form A, 2-n-butyl-3-[4-(3-di-n-butylaminopropoxy)benzoyl]-5-methylsulfonamido-benzofuran] | transforms to form C upon heating | yellow coloration; also recorded: agglomeration of the powder | – | – | – | – | – | appearance of some peaks of form B | additional endothermic peak |

Source: US20110230553A1, “CRYSTALLIZED FORM OF DRONEDARONE BASE” (SANOFI-AVENTIS, priority 2010, published 2011)
